Article PMC4850295, “Using a Genetically Encoded Sensor to Identify Inhibitors of Toxoplasma gondii Ca^2+ Signaling” (The Journal of Biological Chemistry, 2016)
“And” between values parts separate entries of the source, which are not always exact repeats. Identical values can stand only once.

test system: T1, GCaMP5-expressing T. gondii; set-up: species or system GCaMP5-expressing Toxoplasma gondii, extracellular; GCaMP5 fluorescence (cytosolic Ca2+) after 100 uM zaprinast in compound-pretreated extracellular parasites, background-subtracted, relative to zaprinast alone; conditions: 100 uM zaprinast stimulation, 10 min pretreatment, mean of two replicates, 0.23 h, 10 µM
T1 construct: whole extracellular parasites expressing GCaMP5 Ca2+ sensor
Procedure, shortened: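 Read-out is GCaMP5 calcium fluorescence (ex 485/em 525 nm) taken 4 min after 100 μM zaprinast at 37 °C, following 10 min compound pretreatment at 10 μM in duplicate biological replicates. Values are basal-subtracted fold change versus zaprinast-only controls; parasites held extracellular in Ringer's solution.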

Row | Structure (SMILES) | fold change in fluorescence relative to zaprinast alone
1 | CS(=O)(=O)CCNCc1ccc(-c2ccc3ncnc(Nc4ccc(OCc5ccccc5)c(Cl)c4)c3c2)o1 [GW574783B] | 0.7755 and 0.8833

same assay, conditions: 100 uM zaprinast stimulation; 10 min pretreatment; mean of two replicates; 0.23 h

Row | Structure (SMILES) | fold change in fluorescence relative to zaprinast alone
2 | Cc1ccc(C(=O)Nc2ccc(Nc3ccnc4cc(-c5ccccn5)ccc34)cc2O)cc1 [GW440146A] | 2.166
3 | CC(=O)Nc1ccc(COc2ccc(Nc3ccnc4cc(-c5ccccn5)ccc34)cc2)cc1 [GW440148A] | 1.657
4 | Cn1cc(C=C2C(=O)Nc3cccnc32)c2ccccc21 [GW441756X] | 1.234
5 | Cc1cc(O)cc(C)c1/C=C/c1cncc(-c2nn[nH]n2)c1 [GW441806A] | 1.117
6 | CNC(=O)c1cncc(/C=C/c2c(C)cccc2C)c1 [GW445012X] | 1.157
7 | CNC(=O)c1cncc(/C=C/c2c(Cl)cccc2Cl)c1 [GW445014X] | 1.122
8 | CNC(=O)c1cncc(/C=C/c2ccccc2C)c1 [GW445015X] | 1.264
9 | CCc1cccc(CC)c1/C=C/c1cncc(C(=O)NC)c1 [GW450241X] | 1.076
10 | Cc1ccn2nc(-c3ccc(F)cc3)c(-c3ccncc3)c2c1 [GW457859A] | 0.07245
11 | Cc1cc(-c2ccco2)cc(C)c1/C=C/c1cncc(-c2nn[nH]n2)c1 [GW458344A] | 1.482
12 | CS(=O)(=O)CCNCc1ccc(-c2ccc3ncnc(Nc4ccc(OCc5ccccc5)cc4)c3c2)o1 [GW458787A] | 0.4223
13 | CS(=O)(=O)CCNCc1nc(-c2ccc3ncnc(Nc4ccc(F)c(Cl)c4)c3c2)cs1 [GW461104B] | 0.6524
14 | Cc1ccc2c(-c3ccncc3)c(-c3ccc(F)cc3)nn2c1 [GW461484A] | 0.2133
15 | Cc1cccc2c(-c3ccncc3)c(-c3ccc(F)cc3)nn12 [GW461487A] | 0.2322
16 | Cc1c(O)cccc1Nc1ccnc2ccc(C(F)(F)F)cc12 [GW466413A] | 1.009
17 | COc1cccc2c(-c3ccncc3)c(-c3ccc(F)cc3)nn12 [GW468513X] | 0.06975
18 | Fc1ccc(-c2nn3cccc(F)c3c2-c2ccncc2)cc1 [GW475620X] | 0.2984
19 | CC(C)c1ccc(O)cc1Nc1ccnc2ccc(C(F)(F)F)cc12 [GW482059X] | 1.143
20 | CC(=O)c1c(-c2ccncc2)[nH]c(-c2ccncc2)c1C [GW493036X] | 1.057
21 | Oc1cccc(Nc2ccnc3cc(-c4ccncc4)ccc23)c1 [GW494601A] | 1.032
22 | COc1cc(Nc2ccnc3cc(-c4ccncc4)ccc23)cc(OC)c1OC [GW494610A] | 0.2498
23 | Cc1ccc(C(=O)Nc2ccc(Nc3ccnc4cc(-c5nccs5)ccc34)cc2O)cc1 [GW494702A] | 0.9828
24 | Cc1cc(NCC(c2ccccc2)c2ccccc2)nc(NCc2ccc(C(F)(F)F)cc2)n1 [GW497681X] | 1.268

Row | Structure (SMILES) | fold change in fluorescence relative to zaprinast alone
25 | COc1cc(C=NNc2ncnc3c2cnn3-c2ccccc2)ccc1O [GW513184X] | 0.5493
26 | Fc1ccc(-c2nn3c(OCC(F)(F)F)cccc3c2-c2ccncc2)cc1 [GW514784X] | 0.04564
27 | CSc1cccc2c(-c3ccncn3)c(-c3ccc(F)cc3)nn12 [GW514786X] | 0.1155
28 | Cc1cccc2c(-c3ccncn3)c(-c3ccc(F)cc3)nn12 [GW515532X] | 0.6118
29 | Nc1nc(-c2ccccn2)c(-c2ccnc3ccccc23)s1 [GW548057X] | 0.7803
30 | c1ccc(Nc2ncc(-c3ccccc3)o2)cc1 [GW549390X] | 1.88
31 | Fc1cc(Cl)ccc1Nc1ccnc2cc(I)ccc12 [GW551191X] | 1.044
32 | Oc1cc(Nc2ccnc3cc(I)ccc23)ccc1F [GW552771X] | 0.9648
33 | Nc1n[nH]c2nnc(-c3ccccc3)c(-c3ccccc3)c12 [GW554060X] | 1.19
34 | Cc1ccc(O)cc1Nc1ccnc2cc(-c3ccc(CN4CCCCC4)o3)ccc12 [GW557777X] | 0.8105
35 | Cc1ccc(O)cc1Nc1ccnc2ccc(S(C)(=O)=O)cc12 [GW559768X] | 1.199
36 | Fc1cc(Cl)ccc1Nc1ccnc2cc(-c3ccc(CN4CCSCC4)o3)ccc12 [GW560106X] | 0.6773
37 | Fc1cc(Cl)ccc1Nc1ccnc2cc(-c3ccc(CN4CCOCC4)o3)ccc12 [GW560109X] | 0.545
38 | Fc1cc(Cl)ccc1Nc1ccnc2cc(-c3ccc(CN4CCCCC4)o3)ccc12 [GW560116X] | 0.6823
39 | N#Cc1ccc2c(-c3ccnc(NC4CC4)n3)c(-c3ccc(F)cc3)nn2c1 [GW561436X] | 0.8796
40 | CS(=O)(=O)CCNCc1coc(-c2ccc3ncnc(Nc4ccc(OCc5ccccc5)cc4)c3c2)c1 [GW566221B] | 0.9966
41 | CN1CCN(Cc2ccc(-c3ccc4c(Nc5ccc(Oc6ccccn6)cc5)ccnc4c3)o2)CC1 [GW567140X] | 1.304
42 | c1ccc(Oc2ccc(Nc3ccnc4cc(-c5ccc(CN6CCNCC6)o5)ccc34)cc2)nc1 [GW567142A] | 0.8742
43 | c1ccc(Oc2ccc(Nc3ccnc4cc(-c5ccc(CN6CCCCC6)o5)ccc34)cc2)nc1 [GW567143X] | 0.8249
44 | c1ccc(Oc2ccc(Nc3ccnc4cc(-c5ccc(CNCCN6CCOCC6)o5)ccc34)cc2)nc1 [GW567145X] | 0.643
45 | CN(C)Cc1ccc(-c2ccc3c(Nc4ccc(Oc5ccccn5)cc4)ccnc3c2)o1 [GW567148X] | 1.129
46 | Nc1nccc(-c2c(-c3ccc(F)cc3)nn3cc(C(F)(F)F)ccc23)n1 [GW568326X] | 1.261
47 | OCCCNc1nccc(-c2c(-c3ccc(F)cc3)nn3cc(C(F)(F)F)ccc23)n1 [GW569293X] | 0.8575

Row | Structure (SMILES) | fold change in fluorescence relative to zaprinast alone
48 | CS(=O)(=O)CCNCc1nc(-c2ccc3ncnc(Nc4ccc(OCc5cccc(C(F)(F)F)c5)cc4)c3c2)cs1 [GW569530A] | 1.148
49 | CCN(CC)S(=O)(=O)c1ccc(OC)c(Nc2ncc(-c3ccccc3)o2)c1 [GW572401X] | 1.034
50 | N#Cc1c(NC(=O)c2ccccc2F)sc2c1CCCC2 [GW572738X] | 1.241
51 | CS(=O)(=O)CCNCc1ccc(-c2ccc3ncnc(Nc4ccc(OCc5ccccc5)c(C(F)(F)F)c4)c3c2)o1 [GW574782A] | 0.7605
52 | COc1ccc(Nc2ncc(-c3ccccc3)o2)cc1OC [GW575533A] | 1.197
53 | Cc1ccc(Nc2ccnc(Nc3cccc(C(N)=O)c3)n2)cc1O [GW575808A] | 1.342
54 | CS(=O)(=O)CCNCc1ccc(-c2ccc3ncnc(Nc4ccc(OCc5cccc(F)c5)c(C(F)(F)F)c4)c3c2)o1 [GW576484X] | 0.5624
55 | [O-][S+]1CCN(Cc2ccc(-c3ccc4ncnc(Nc5ccc(OCc6ccccc6)c(F)c5)c4c3)o2)CC1 [GW576924A] | 0.1384
56 | COc1ccccc1Nc1ncc(-c2ccccc2)o1 [GW577921A] | 0.9668
57 | CN1CCN(Cc2cccc(-c3ccc4c(Nc5ccc(Oc6ccccc6)cc5)ccnc4c3)c2)CC1 [GW578342X] | 1.603
58 | COc1cc(/C=N/Nc2ncnc3[nH]ncc23)ccc1O [GW578748X] | 0.8277
59 | Cc1ccc(Nc2ccnc(Nc3ccc4c(c3)CS(=O)(=O)C4)n2)cc1O [GW579362A] | 1.38
60 | CS(=O)(=O)CCNCc1ccc(-c2ccc3ncnc(Nc4ccc(OCc5ccccc5)c(Br)c4)c3c2)o1 [GW580496A] | 1.191
61 | CCS(=O)(=O)c1ccc(OC)c(Nc2ncc(-c3cccc(OC)c3)o2)c1 [GW580509X] | 1.14
62 | NC(=O)c1ccc2c(-c3ccnc(NCCCO)n3)c(-c3ccc(F)cc3)nn2c1 [GW581744X] | 0.8342
63 | Cc1ccc(Nc2ccnc(Nc3ccc(C)c(F)c3)n2)cc1O [GW582868A] | 1.057
64 | [O-][S+]1CCN(Cc2ccc(-c3ccc4ncnc(Nc5ccc(OCc6ccccc6)c(Cl)c5)c4c3)o2)CC1 [GW583373A] | 0.2727
65 | NS(=O)(=O)c1ccc(NC=C2C(=O)Nc3ccc4ncsc4c32)cc1 [GW589933X] | 1.196
66 | COC(=O)Nc1nc2ccc(Oc3ccc(NC(=O)Nc4cccc(Cl)c4)cc3)cc2[nH]1 [GW589961A] | 1.185
67 | CCS(=O)(=O)c1ccc(OC)c(Nc2ncc(-c3ccc(F)cc3)o2)c1 [GW591947A] | 1.203
68 | COc1ccc(NC(=O)c2ccc(-c3cc(-c4nnc(C)o4)ccc3C)cc2)cc1 [GW595885X] | 1.221
69 | FC(F)(F)c1ccc(-c2cc(-c3cn[nH]c3-c3ccccn3)ccn2)cc1 [GW599550X] | 1.459

same assay, conditions: 0.23 h, 10 µM

Row | Structure (SMILES) | % of control remaining
70 | NS(=O)(=O)c1ccc(Nc2ncc(-c3ccccc3)o2)cc1 [GW572399X] | 1.225
